Measurements taken from PubChem BioAssay (NCI).
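Compound exposure: 48 hours, 5 concentrations, 96-well plates. GI50 = concentration required for 50% inhibition of growth. TGI marks complete inhibition of growth.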

Assays:
Test in all cases: NCI tumour cell line growth inhibition, 48 h; in the data active = GI50 below about 0.43 µM; inactive = the rest
K-562 leukemia = system: K-562 leukemia
CAKI-1 renal = system: CAKI-1 renal
UACC-257 melanoma = system: UACC-257 melanoma
SR leukemia = system: SR leukemia
KM12 colon = system: KM12 colon
T-47D breast = system: T-47D breast
HT29 colon = system: HT29 colon
EKVX NSCLC = system: EKVX NSCLC
SNB-19 CNS = system: SNB-19 CNS
SK-MEL-5 melanoma = system: SK-MEL-5 melanoma
RXF 393 renal = system: RXF 393 renal
UO-31 renal = system: UO-31 renal
786-0 renal = system: 786-0 renal
U251 CNS = system: U251 CNS
A498 renal = system: A498 renal
NCI-H522 lung = system: NCI-H522 lung
MDA-MB-231 breast = system: MDA-MB-231 breast
ACHN renal = system: ACHN renal
MDA-MB-435 = system: MDA-MB-435
MCF7 breast = system: MCF7 breast
TK-10 renal = system: TK-10 renal
UACC-62 melanoma = system: UACC-62 melanoma
PC-3 prostate = system: PC-3 prostate
A549 NSCLC = system: A549 NSCLC
SNB-75 CNS = system: SNB-75 CNS
NCI/ADR-RES ovarian = system: NCI/ADR-RES ovarian
MALME-3M melanoma = system: MALME-3M melanoma
OVCAR-3 ovarian = system: OVCAR-3 ovarian
OVCAR-8 ovarian = system: OVCAR-8 ovarian
HCT-15 colon = system: HCT-15 colon
BT-549 breast = system: BT-549 breast
SW-620 colon = system: SW-620 colon
IGROV1 ovarian = system: IGROV1 ovarian
DU-145 prostate = system: DU-145 prostate
HL-60(TB) leukemia = system: HL-60(TB) leukemia
COLO 205 colon = system: COLO 205 colon
SF-268 CNS = system: SF-268 CNS
SK-OV-3 ovarian = system: SK-OV-3 ovarian
NCI-H226 lung = system: NCI-H226 lung
SK-MEL-28 melanoma = system: SK-MEL-28 melanoma
HCC-2998 colon = system: HCC-2998 colon
LOX IMVI melanoma = system: LOX IMVI melanoma
HS 578T breast = system: HS 578T breast
RPMI-8226 leukemia = system: RPMI-8226 leukemia
CCRF-CEM leukemia = system: CCRF-CEM leukemia
M14 melanoma = system: M14 melanoma
HCT-116 colon = system: HCT-116 colon
HOP-62 NSCLC = system: HOP-62 NSCLC
NCI-H23 lung = system: NCI-H23 lung
MOLT-4 leukemia = system: MOLT-4 leukemia
SF-295 CNS = system: SF-295 CNS
SN12C renal = system: SN12C renal
NCI-H460 lung = system: NCI-H460 lung
SF-539 CNS = system: SF-539 CNS
OVCAR-5 ovarian = system: OVCAR-5 ovarian
HOP-92 NSCLC = system: HOP-92 NSCLC
SK-MEL-2 melanoma = system: SK-MEL-2 melanoma
OVCAR-4 ovarian = system: OVCAR-4 ovarian

CC(=O)Nc1nc(SCc2ccccc2)c2ncn(C(C)=O)c2n1
inactive: GI50 (K-562 leukemia) > 100 µM | GI50 (CAKI-1 renal) 28 µM | GI50 (UACC-257 melanoma) > 100 µM | GI50 (SR leukemia) > 100 µM | GI50 (KM12 colon) > 100 µM | GI50 (T-47D breast) 50.7 µM | GI50 (HT29 colon) 63.4 µM | GI50 (EKVX NSCLC) 71.6 µM | GI50 (SNB-19 CNS) > 100 µM | GI50 (SK-MEL-5 melanoma) 45.3 µM | GI50 (RXF 393 renal) 30.9 µM | GI50 (UO-31 renal) 43.5 µM | GI50 (786-0 renal) 72.5 µM | GI50 (U251 CNS) 88.8 µM | GI50 (A498 renal) 30.9 µM | GI50 (NCI-H522 lung) 72.6 µM | GI50 (MDA-MB-231 breast) 77.3 µM | GI50 (ACHN renal) 61.6 µM | GI50 (MDA-MB-435) > 100 µM | GI50 (MCF7 breast) 91.8 µM | GI50 (TK-10 renal) 23.4 µM | GI50 (UACC-62 melanoma) 61.8 µM | GI50 (PC-3 prostate) 72.2 µM | GI50 (A549 NSCLC) > 100 µM | GI50 (SNB-75 CNS) 44.7 µM | GI50 (NCI/ADR-RES ovarian) 99.3 µM | GI50 (MALME-3M melanoma) > 100 µM | GI50 (OVCAR-3 ovarian) 84.3 µM | GI50 (OVCAR-8 ovarian) 76.5 µM | GI50 (HCT-15 colon) 93 µM | GI50 (BT-549 breast) 85.3 µM | GI50 (SW-620 colon) > 100 µM | GI50 (IGROV1 ovarian) 79 µM | GI50 (DU-145 prostate) > 100 µM | GI50 (HL-60(TB) leukemia) 63 µM | GI50 (COLO 205 colon) > 100 µM | GI50 (SF-268 CNS) > 100 µM | GI50 (SK-OV-3 ovarian) 55.9 µM | GI50 (NCI-H226 lung) 45.4 µM | GI50 (SK-MEL-28 melanoma) > 100 µM | GI50 (HCC-2998 colon) > 100 µM | GI50 (LOX IMVI melanoma) 75.1 µM | GI50 (HS 578T breast) 47.3 µM | GI50 (RPMI-8226 leukemia) 55.6 µM | GI50 (CCRF-CEM leukemia) > 100 µM | GI50 (M14 melanoma) 88.6 µM | GI50 (HCT-116 colon) > 100 µM | GI50 (HOP-62 NSCLC) 62.7 µM | GI50 (NCI-H23 lung) > 100 µM | GI50 (MOLT-4 leukemia) > 100 µM | GI50 (SF-295 CNS) 66.1 µM | GI50 (SN12C renal) > 100 µM | GI50 (NCI-H460 lung) > 100 µM | GI50 (SF-539 CNS) 97.7 µM | GI50 (OVCAR-5 ovarian) > 100 µM
78.3 µM: TGI (TK-10 renal)
> 100 µM: TGI (K-562 leukemia) | TGI (CAKI-1 renal) | TGI (UACC-257 melanoma) | TGI (SR leukemia) | TGI (KM12 colon) | TGI (T-47D breast) | TGI (HT29 colon) | TGI (EKVX NSCLC) | TGI (SNB-19 CNS) | TGI (SK-MEL-5 melanoma) | TGI (RXF 393 renal) | TGI (UO-31 renal) | TGI (786-0 renal) | TGI (U251 CNS) | TGI (A498 renal) | TGI (NCI-H522 lung) | TGI (MDA-MB-231 breast) | TGI (ACHN renal) | TGI (MDA-MB-435) | TGI (MCF7 breast) | TGI (UACC-62 melanoma) | TGI (PC-3 prostate) | TGI (A549 NSCLC) | TGI (SNB-75 CNS) | TGI (NCI/ADR-RES ovarian) | TGI (MALME-3M melanoma) | TGI (OVCAR-3 ovarian) | TGI (OVCAR-8 ovarian) | TGI (HCT-15 colon) | TGI (BT-549 breast) | TGI (SW-620 colon) | TGI (IGROV1 ovarian) | TGI (DU-145 prostate) | TGI (HL-60(TB) leukemia) | TGI (COLO 205 colon) | TGI (SF-268 CNS) | TGI (SK-OV-3 ovarian) | TGI (NCI-H226 lung) | TGI (SK-MEL-28 melanoma) | TGI (HCC-2998 colon) | TGI (LOX IMVI melanoma) | TGI (HS 578T breast) | TGI (RPMI-8226 leukemia) | TGI (CCRF-CEM leukemia) | TGI (M14 melanoma) | TGI (HCT-116 colon) | TGI (HOP-62 NSCLC) | TGI (NCI-H23 lung) | TGI (MOLT-4 leukemia) | TGI (SF-295 CNS) | TGI (SN12C renal) | TGI (NCI-H460 lung) | TGI (SF-539 CNS) | TGI (OVCAR-5 ovarian)

C=C1CC[C@@]2(C#N)[C@H]3[C@H](CC[C@@H]2C)[C@@H](C)C[C@@H](CC(C)(C)C#N)[C@H]13
18.8 µM: TGI (BT-549 breast)
17.5 µM: TGI (SF-539 CNS)
12.5 µM: TGI (M14 melanoma)
58.1 µM: TGI (A498 renal)
35.8 µM: TGI (MDA-MB-231 breast)
56.4 µM: TGI (UACC-257 melanoma)
30.5 µM: TGI (PC-3 prostate)
24.1 µM: TGI (NCI-H226 lung)
18.9 µM: TGI (KM12 colon)
16.1 µM: TGI (HT29 colon)
0.68 µM: TGI (HOP-92 NSCLC)
23.1 µM: TGI (HCT-15 colon)
64.8 µM: TGI (SN12C renal)
40.2 µM: TGI (SK-MEL-2 melanoma)
16.7 µM: TGI (UACC-62 melanoma)
active: GI50 (UO-31 renal) 0.363 µM | GI50 (PC-3 prostate) 0.283 µM | GI50 (HOP-92 NSCLC) 0.2 µM | GI50 (SNB-75 CNS) 0.215 µM | GI50 (DU-145 prostate) 0.337 µM | GI50 (LOX IMVI melanoma) 0.413 µM | GI50 (HCT-116 colon) 0.229 µM | GI50 (SF-295 CNS) 0.171 µM
12.8 µM: TGI (NCI-H460 lung)
31.5 µM: TGI (TK-10 renal)
14.4 µM: TGI (COLO 205 colon)
70.1 µM: TGI (SNB-19 CNS)
24.3 µM: TGI (HOP-62 NSCLC)
29.5 µM: TGI (HL-60(TB) leukemia)
34.8 µM: TGI (A549 NSCLC)
77.9 µM: TGI (SK-OV-3 ovarian)
20.6 µM: TGI (HCC-2998 colon)
1.68 µM: TGI (SF-295 CNS)
0.705 µM: TGI (SNB-75 CNS)
15.8 µM: TGI (MCF7 breast)
14.5 µM: TGI (LOX IMVI melanoma)
10.9 µM: TGI (T-47D breast)
14.7 µM: TGI (ACHN renal)
45.7 µM: TGI (EKVX NSCLC)
40.8 µM: TGI (MALME-3M melanoma)
59.4 µM: TGI (IGROV1 ovarian)
57.9 µM: TGI (NCI-H522 lung)
26.3 µM: TGI (RPMI-8226 leukemia)
95.7 µM: TGI (MDA-MB-435)
inactive: GI50 (K-562 leukemia) 0.46 µM | GI50 (CAKI-1 renal) 1.73 µM | GI50 (UACC-257 melanoma) 8.3 µM | GI50 (SR leukemia) 1.57 µM | GI50 (KM12 colon) 0.471 µM | GI50 (T-47D breast) 2.24 µM | GI50 (HT29 colon) 0.469 µM | GI50 (EKVX NSCLC) 1.12 µM | GI50 (SNB-19 CNS) 10.1 µM | GI50 (SK-MEL-5 melanoma) 1.54 µM | GI50 (RXF 393 renal) 5.85 µM | GI50 (786-0 renal) 2.33 µM | GI50 (U251 CNS) 2.86 µM | GI50 (A498 renal) 6.6 µM | GI50 (NCI-H522 lung) 10.8 µM | GI50 (MDA-MB-231 breast) 6.1 µM | GI50 (ACHN renal) 1.03 µM | GI50 (MDA-MB-435) 2.06 µM | GI50 (MCF7 breast) 0.785 µM | GI50 (TK-10 renal) 0.969 µM | GI50 (UACC-62 melanoma) 2.45 µM | GI50 (A549 NSCLC) 3.52 µM | GI50 (SK-MEL-2 melanoma) 6.67 µM | GI50 (NCI/ADR-RES ovarian) 2.87 µM | GI50 (MALME-3M melanoma) 5.23 µM | GI50 (OVCAR-3 ovarian) 2.88 µM | GI50 (OVCAR-8 ovarian) 0.785 µM | GI50 (HCT-15 colon) 0.604 µM | GI50 (BT-549 breast) 1.23 µM | GI50 (SW-620 colon) 4.65 µM | GI50 (IGROV1 ovarian) 4.77 µM | GI50 (HL-60(TB) leukemia) 2.48 µM | GI50 (OVCAR-4 ovarian) 2.14 µM | GI50 (COLO 205 colon) 1.61 µM | GI50 (SF-268 CNS) 2.34 µM | GI50 (SK-OV-3 ovarian) 6.6 µM | GI50 (NCI-H226 lung) 2.43 µM | GI50 (SK-MEL-28 melanoma) 2.63 µM | GI50 (HCC-2998 colon) 2.95 µM | GI50 (HS 578T breast) 0.637 µM | GI50 (RPMI-8226 leukemia) 0.589 µM | GI50 (CCRF-CEM leukemia) 1.62 µM | GI50 (M14 melanoma) 1.48 µM | GI50 (HOP-62 NSCLC) 2.33 µM | GI50 (NCI-H23 lung) 1.06 µM | GI50 (MOLT-4 leukemia) 3.02 µM | GI50 (SN12C renal) 5.71 µM | GI50 (NCI-H460 lung) 0.877 µM | GI50 (SF-539 CNS) 0.609 µM
22.1 µM: TGI (SW-620 colon)
28.8 µM: TGI (OVCAR-3 ovarian)
72.1 µM: TGI (MOLT-4 leukemia)
29.8 µM: TGI (U251 CNS)
22.8 µM: TGI (RXF 393 renal)
35.3 µM: TGI (SF-268 CNS)
44.2 µM: TGI (SK-MEL-28 melanoma)
16.2 µM: TGI (DU-145 prostate)
23.3 µM: TGI (786-0 renal)
33.7 µM: TGI (OVCAR-8 ovarian)
> 100 µM: TGI (K-562 leukemia) | TGI (CAKI-1 renal)
33.5 µM: TGI (CCRF-CEM leukemia)
19.3 µM: TGI (UO-31 renal)
24.6 µM: TGI (NCI/ADR-RES ovarian)
12.9 µM: TGI (SK-MEL-5 melanoma)
40.3 µM: TGI (SR leukemia)
11.2 µM: TGI (HCT-116 colon)
41 µM: TGI (OVCAR-4 ovarian)
32.6 µM: TGI (NCI-H23 lung)
55 µM: TGI (HS 578T breast)
